In patent publication US20030229132A1, “Small molecule modulators of apoptosis” (priority 2002, published 2003):

Key:
Jurkat cells = experiment: Cell viability by MTT test, Jurkat; format: cell-based, human
Description: (§1) Samples were then probed by immunoblot for (A) caspase-3 activation or (B) cleavage of PARP. (C) DNA fragmentation analysis. […] The DNA was isolated by phenol/chloroform extraction, separated on a 2% agarose gel and visualized by ethidium bromide staining. Cell viability assay.
One of the hallmarks of apoptosis is the fragmentation of chromosomal DNA into discrete, nucleosomal sized bands. […] We then examined the effects of the compounds on cell viability. Jurkat cells were incubated at different concentrations of compounds for 22 hr and then assayed by MTT test.
(§2) Normal cell lines include peripheral blood lymphocytes (PBL) isolated from donated human blood, non-transformed mammary fibroblasts (MCF-10A), human mammary epithelial cells (HMEC), human umbilical vein endothelial cells (HUVEC), and human prostate epithelial cells (PREC). Transformed cell lines include cell lines from leukemia, breast, lung, ovarian, and epidermal cancers (Table 1).

MCF 10A cells = experiment: Cell viability, MCF 10A; format: cell-based, human
From the text: as §2

[1] = tested on: human mammary epithelial cells (HMEC); experiment: Cell viability, HMEC; format: cell-based
CCRF-CEM = experiment: Cell viability, CCRF-CEM; format: cell-based, human; conditions: leukemia
From the text: as §1, §2

BT-549 = experiment: Cell viability, BT-549; format: cell-based, human; conditions: BT-549, breast
From the text: as §2

MDA-MB-453 = experiment: Cell viability, MDA-MB-453; format: cell-based; conditions: MDA-MB-453, breast
From the text: as §2

NCI-H23 = experiment: Cell viability, NCI-H23; format: cell-based, human; conditions: NCI-H23, lung
SK-OV-3 = experiment: Cell viability, SK-OV-3; format: cell-based
From the text: as §2

A431 = experiment: Cell viability, A431; format: cell-based; conditions: A431, epidermal
From the text: as §2

[2] = tested on: cell lines from the NCI cancer panel; experiment: NCI cancer panel, cell growth by sulforhodamine B staining; format: cell-based
Description: Cells were exposed to serial dilutions of compound 2 continuously for 6 days, and cell growth relative to controls was determined by staining with sulforhodamine B. Some cell lines were excluded for clarity. (A) Dose-response plots for leukemia, melanoma, renal cancer and CNS cancer. (B) Dose-response plots for lung, breast and colon cancers.
Compounds 2-5 additionally were submitted to the National Cancer Institute for screening in the cancer panel. […] Compound 2 exerted a cytostatic effect on the majority of cell lines tested, inhibiting cell growth by 50-100% at 10 μM in 40 out of 48 cell lines tested. In addition, compound 2 exerted a cytotoxic effect, reducing the cell numbers by 10-50% in four cell lines and by 50-100% in eight cell lines from the initial levels when tested at 10 μM. […] Representative dose-response plots for lung, breast and colon cancer cell lines are also shown (FIG. 4B). Results for ovarian and prostate cancer were similar.

procaspase-3 processing = experiment: Procaspase-3 processing in SK-OV-3 cell lysate with purified Apaf-1; format: biochemical; conditions: 20 μM compound, 150 nM purified Apaf-1, 300 μM dATP
Description: (A) Jurkat cells were transfected with 20 nM Apaf-1 siRNA for 48 hr and half the cells were lysed and probed with antibodies to Apaf-1, caspase-9, and caspase-3. The other half of the cells was incubated with varying concentrations of (B), compound 2 or (C), Fas ligand for 24 hr and assayed for viability by MTT test. (D) SK-OV-3 cells were transiently transfected with Apaf-1 or vector control for 24 hr and then incubated with vary concentrations of compound 2 and assayed for viability. (E) Cyto c was titrated into SK-OV-3 cell lysate in the presence of 300 μM dATP, with or without 150 nM purified Apaf-1 and 20 μM compound 2 as indicated.
If silencing Apaf-1 in Jurkat cells make them resistant to compound 2 induced apoptosis, then it would be expected that ectopic expression of wildtype Apaf-1 in an Apaf-1 deficient cell line should render cells sensitive to compound 2. As mentioned above, the ovarian cancer cell line SK-OV-3 is deficient in Apaf-1 activity and is resistant to compound 2. Apaf-i was cloned into pcDNA-3 and transiently transfected into SK-OV-3 cells using Fugene (Roche) according to the manufacturer's instructions. Transient transfection of Apaf-1 into SK-OV-3 cells rendered them sensitive to compound 2 cytotoxicity as compared to the vector control (FIG. 5D). […]

procaspases-9 and -3 = experiment: Immunoblot for cleavage of procaspases-9 and -3 in S-100 cytoplasmic extracts; format: biochemical; conditions: 20 μM compound, cyto c 1.25 μM
Description: FIG. 2 depicts activity of compounds 1-5 in cell lysates. (A) Compound activation is cyto c dependent. Cyto c was titrated into S-100 cytoplasmic extracts with vehicle alone or 20 μM compound and procaspase-3 processing was assayed by capture ELISA. (B) Compound activation is dose-dependent. Compounds or vehicle were titrated into S-100 cytoplasmic extracts at a cyto c concentration of 1.25 μM and procaspases-3 processing was assayed by capture ELISA. (C) Immunoblot assay of compound-induced caspase activation. Samples at the 20 μM compound concentration in (B) were separated on SDS-polyacrylamide gel and transferred to polyvinyl membrane. The same membrane was cut and probed with antibodies to caspase-9, the large subunit of active caspase-3, and P13 kinase as a loading control. (D) Compounds act upstream of caspase-9 activation. Cyto c was titrated into caspase-3 immunodepleted extracts with or without 20 μM compounds and assayed by immunoblot for procaspase-9 processing.
To directly visualize the processing of procaspases induced by the compounds, samples at the 20 μM compound concentration in FIG. 2B were assayed by immunoblot for the cleavage of procaspases-9 and -3.

O=C1C(=O)N(Cc2ccc(Cl)c(Cl)c2)c2ccccc21 [Compound 2]
EC50 (Jurkat cells; Jurkat, 22 hr, MTT test, read-out: EC50 cell killing): ~5 µM
IC50 (Jurkat cells; Jurkhat, leukemia, p53 +): 4 µM
effect on cells (MCF 10A cells; MCF 10A cells, up to 50 μM): no effect except at the highest concentration
IC50 (MCF 10A cells; MCF 10A, normal cell): > 50 µM
effect on cells ([1]; HMEC cells, up to 50 μM): no effect except at the highest concentration
IC50 ([1]; HMEC, normal cell): > 50 µM
IC50 (CCRF-CEM): 9 µM
IC50 (BT-549): 20 µM
IC50 (MDA-MB-453): > 50 µM
IC50 (NCI-H23): 35 µM
effect on cells (SK-OV-3; SK-OV-3, deficient in Apaf-1 activity): no effect
IC50 (SK-OV-3; SK-OV-3, ovarian, Apaf-1 deficient): > 50 µM
IC50 (A431): 40 µM
inhibition of cell growth (cytostatic effect) ([2]; 10 μM, in 40 out of 48 cell lines tested, 6 days): 50-100%
reduction of cell numbers from the initial levels (cytotoxic effect) ([2]; 10 μM, in eight cell lines): 50-100%
reduction of cell numbers from the initial levels (cytotoxic effect) ([2]; 10 μM, in four cell lines): 10-50%
cytotoxicity ([2]; 100 μM, virtually all cell lines): 100%
sensitivity relative to the mean response of the panel ([2]; CCRF-CEM, MOLT-4, LOX IMVI, SN 12C, SF-295): 5-10 fold
overall activity in the cancer panel ([2]; among compounds 2-5): most active overall
effect on cyto c activation curve of procaspase-3 processing (procaspase-3 processing): shifted the activation curve to the left

O=C(NCc1ccc(Cl)c(Cl)c1)OC1CCc2ccccc21 (stereo not drawn) [Compound 4]
processing of procaspases-9 and -3 (procaspases-9 and -3): limited processing
